# Legend:
# GlyCAM-1 [1] = experiment: [35S]-sulfate metabolic labelling of lymph node organ culture; precipitation of GlyCAM-1 with peptide antibody or lectins, scintillation counting; type: cell-based, mouse
# Description: (§1) Slices of mouse lymph nodes were cultured with ^35S-sulfate in the presence and absence of 10 mM sodium chlorate. Detergent lysates were prepared and subjected to precipitation with several reagents that recognize GlyCAM-1. […] Only a background level (0.9% of control) of radioactivity was measured in the precipitate from the chlorate-treated culture.
# (§2) Pooled mesenteric and peripheral lymph nodes from ICR mice (80 mg wet weight per condition) were incubated with (a) 250 µCi of [^35-S]-sodium sulfate (ICN) or (b) 250 µCi of [5,6 ^3-H]-L-fucose (ICN) in the presence or absence of 10 mM Na chlorate (Aldrich) in 0.5 ml of RPMI-1640 with 25 mM HEPES (1/10 sulfate concentration) for 4 h at 37°C. Tissue was extracted with 1.2 ml of 2% Triton X-100 (Boehringer Mannheim) in Dulbecco's PBS containing 1 mM PMSF (Sigma), 1% (v/v) aprotinin (Sigma), 10 µg/ml of pepstatin (Boehringer Mannheim) and 0.02% NaN3 (lysis buffer) as described previously^11. The lysates were boiled 3 min and the supernatants were precleared with 100 µl of Protein A Sepharose (Zymed) overnight. Aliquots of the precleared supernatants were added to 10 µl beads of LEC-IgG-Protein A Sepharose Beads (30 µg LEC-IgG per 10 µl beads), rabbit anti-peptide 2-Protein A beads (10 µl serum per 10 µl beads), rabbit preimmune serum-Protein A beads (10 µl serum per 10 µl beads), Limax flavus agglutinin-Sepharose beads (20 µg protein per 10 µl beads), or Aleuria aurantia agglutinin-Sepharose beads (10 µg protein per 10 µl beads), and incubated for 4 h at 4°C on a rocker. The beads were washed in the lysis buffer (6 times), and the 1/14 aliquots of beads were saved for direct counting by a scintillation counting and the remainder of beads were solubilized in Laemmli sample buffer (without beta mercaptoethanol) and run by on a 10% acrylamide gel (nonreducing condition) with fluorography employing ENHANCE (New England Nuclear). Molecular weight markers (BioRad) were phosphorylase B (97.4 K), BSA (66.2 K), ovalbumin (45 K), carbonic anhydrase (31 K), soybean trypsin inhibitor (21.5 K). LEC-IgG and antiserum were coated on Protein A-Sepharose beads by rocking overnight at 4°C. Lectin beads were prepared by coupling Limax agglutinin (Calbiochem) and AAA (Boehringer Mannheim) to CNBr-activated Sepharose 4B (Sigman). Miller, R., Meth. Enzymol. 138:527-536 (1987).
# Inhibition of GlyCAM-1 sulfation eliminates its interaction and/or binding with L-selectin. This conclusion was reached when aliquots of the same precipitates of Example 1, labeled with (a) [^35-S]-sulfate or (b) [^3-H]-fucose in the presence (dark bars) or absence (cross-hatched bars) of chlorate were subjected to scintillation counting. The percents shown in a given panel (a) (not shown) indicate the percent counts obtained in the presence of chlorate as compared to the absence of chlorate. The values for anti-peptide 2, Limax, and AAA were essentially the same, reflecting the overall reduction in sulfation. In an independent experiment, the corresponding values were: 6% (for LEC-IgG), 35.6% (for anti-peptide 2), 35.3% (for Limax).
# GlyCAM-1 [2] = experiment: [3H]-threonine metabolic labelling of lymph nodes (synthesis of protein core); type: cell-based, mouse; conditions: presence of chlorate
# Description: (§3) To determine what effect chlorate had on the synthesis of the protein core of GlyCAM-1, we employed ^3H-threonine as a metabolic label. […] With or without chlorate treatment, two antibodies against the core protein of GlyCAM-1 precipitated broad bands that ran at ≈50K.
# (§4) Mouse lymph nodes were labeled with 750 µCi of L-[3-^3H] threonine (Amersham) in 0.5 ml of threonine free-1/10 sulfate concentration-RPMI 1640 containing 25 mM HEPES for 4 h at 37°C in the absence or the presence of 10 mM sodium chlorate. Detergent lysates were boiled, precleared and subjected to precipitation with the indicated reagent as described in Example 1. Conditioned media were precleared and precipitated in parallel. The bead-bound material was analyzed on SDS-PAGE under reducing conditions with fluorography. In the anti-peptide antibody lanes, the ≈50K component was compressed by the immunoglobulin heavy chain.
# GlyCAM-1 [3] = experiment: [3H]-fucose metabolic labelling of lymph node organ culture (fucosylation of GlyCAM-1); type: cell-based, mouse
# Description: (§5) To determine directly whether the fucosylation of GlyCAM-1 was affected by chlorate, ^3H-fucose was employed as a metabolic precursor. […] However, while LEC-IgG precipitated GlyCAM-1 in the control culture, LEC-IgG precipitated only a background level of counts (7% of control) from the chlorate-treated culture and there was no detectable GlyCAM-1.
# Pooled mesenteric and peripheral lymph nodes from ICR mice (80 mg wet weight per condition) were incubated with (a) 250 µCi of [^35-S]-sodium sulfate (ICN) or (b) 250 µCi of [5,6 ^3-H]-L-fucose (ICN) in the presence or absence of 10 mM Na chlorate (Aldrich) in 0.5 ml of RPMI-1640 with 25 mM HEPES (1/10 sulfate concentration) for 4 h at 37°C. Tissue was extracted with 1.2 ml of 2% Triton X-100 (Boehringer Mannheim) in Dulbecco's PBS containing 1 mM PMSF (Sigma), 1% (v/v) aprotinin (Sigma), 10 µg/ml of pepstatin (Boehringer Mannheim) and 0.02% NaN3 (lysis buffer) as described previously^11. The lysates were boiled 3 min and the supernatants were precleared with 100 µl of Protein A Sepharose (Zymed) overnight. […]
# L-selectin = experiment: Precipitation of metabolically labelled GlyCAM-1 from lymph node cultures with L-selectin chimera (LEC-IgG); type: cell-based
# Description: as §1, §5, §3, §2, §4
# GlyCAM-1 [4] = experiment: Label incorporation into GlyCAM-1 immunoprecipitated (CAM02 Ab) from conditioned medium of lymph node organ culture; type: cell-based, mouse
# Description: (^3H-Gal)-labeled GlyCAM-1 was produced in mouse lymph node organ cultures as described in Examples 1-4 above. Undersulfated GlyCAM was generated by organ culture of murine lymph nodes in medium containing 10 mM Na-chlorate, a known inhibitor of sulfation. GlyCAM-1 was isolated from the conditioned media by immunoprecipitation with an antibody to a peptide sequence in the core protein of GlyCAM-1 (CAM02 Ab), as described in Examples 1-4 above. […] Desialylation of GlyCAM-1 was accomplished in all cases by treatment with Arthrobacter ureafacens sialidase (1.75 units/ml) in 120 mM Na acetate, pH 5.5 (18 h 37°C).
# CD34/Sgp90 = experiment: Interaction of CD34/Sgp90 with L-selectin after inhibition of its sulfation; type: cell-based; conditions: sulfation inhibited by chlorate treatment
# From the text: The complete loss of reactivity with LEC-IgG establishes the importance of sulfation for binding. […] CD34/Sgp90 is also a sulfated ligand of L-selectin.
# [5] = chlorate 10 mM in organ cultures of lymph nodes
smiles,measurement,setting,value
"[O-][Cl+2]([O-])O [chlorate, sodium chlorate]",activity at 10000 µM,"GlyCAM-1 [1]; Mus musculus, [^35-S]-sulfate label, independent experiment, read-out: percent counts in the presence of chlorate as compared to the absence, Limax",35.3%
same,activity at 10000 µM,"GlyCAM-1 [1]; Mus musculus, [^35-S]-sulfate label, independent experiment, read-out: percent counts in the presence of chlorate as compared to the absence, anti-peptide 2",35.6%
same,activity at 10000 µM,"GlyCAM-1 [1]; Mus musculus, ^35S-sulfate label, 10 mM sodium chlorate, detergent lysates, scintillation counting, read-out: radioactivity immunoprecipitated by the peptide antibody",12%
same,activity at 10000 µM,"GlyCAM-1 [1]; Mus musculus, ^35S-sulfate label, 10 mM sodium chlorate, detergent lysates, read-out: ^35S-sulfate precipitated by Aleuria aurentia lectin",13.7%
same,activity at 10000 µM,"GlyCAM-1 [1]; Mus musculus, ^35S-sulfate label, 10 mM sodium chlorate, detergent lysates, read-out: ^35S-sulfate precipitated by Limax agglutinin",11.4%
same,inhibition at 10000 µM,"GlyCAM-1 [1]; Mus musculus, chlorate 10 mM in organ cultures of lymph nodes, read-out: reduction of incorporation of ^35S-SO4 into GlyCAM and CD34",~90%
same,activity at 10000 µM,"GlyCAM-1 [1]; Mus musculus, inferred from the ratio of counts precipitated by the peptide antibody, read-out: sulfate incorporation into GlyCAM-1",10 to 15%
same,Binding of GlyCAM to a fucose-specific lectin (Aleuria aurantia agglutinin),GlyCAM-1 [1]; [5],unchanged
same,Binding of GlyCAM to a sialic acid specific lectin (Limax agglutinin),GlyCAM-1 [1]; [5],unchanged
same,rate of synthesis of the protein core of GlyCAM or CD34,GlyCAM-1 [2],did not affect
same,cpm precipitated by the peptide antibody,"GlyCAM-1 [3]; ^3H-fucose label, detergent lysates, chlorate versus control cultures",approximately the same number of cpm
same,level of fucosylation (incorporation of [^3H]-fucose into GlyCAM),GlyCAM-1 [3]; presence of chlorate,not affected
same,"percent counts in the presence of chlorate as compared to the absence, LEC-IgG","L-selectin; [^35-S]-sulfate label, independent experiment, 10000 µM",6%
same,counts precipitated by LEC-IgG,"L-selectin; ^3H-fucose label, chlorate-treated culture, 10000 µM",7 % of control
same,GlyCAM-1 component precipitated by LEC-IgG from conditioned medium,"L-selectin; ^3H-threonine label, chlorate present during the culture",did not react with any components
same,radioactivity in the LEC-IgG precipitate,"L-selectin; ^35S-sulfate label, 10 mM sodium chlorate, detergent lysates",0.9 % of control
same,GlyCAM-1 band precipitated by LEC-IgG (SDS-PAGE),"L-selectin; ^35S-sulfate label, chlorate-treated culture, strong band in control",failed to precipitate a detectable GlyCAM-1 band
same,binding to L-selectin (GlyCAM and CD34),L-selectin; [5],completely eliminated
same,binding of LEC-IgG to GlyCAM,L-selectin; culture in chlorate,completely abrogated
same,"[^3H]-galactose activity incorporated by GlyCAM, presence versus absence of chlorate","GlyCAM-1 [4]; 10 mM Na-chlorate, 0.25 mCi input",about the same
same,incorporation of [^35S]-sulfate into GlyCAM,"GlyCAM-1 [4]; 10 mM Na-chlorate, 0.5 mCi input, control 1.75 x 10^6 cpm",0.16 x 10^6 cpm
same,activity at 10000 µM,"GlyCAM-1 [4]; Mus musculus, 10 mM Na-chlorate, 0.5 mCi input, read-out: incorporation of [^35S]-sulfate into GlyCAM",10%
same,[^3H]-galactose activity incorporated by GlyCAM,"GlyCAM-1 [4]; presence or absence of chlorate, 0.25 mCi input",2 x 10^6 cpm
same,ability of CD34/Sgp90 to interact with L-selectin,CD34/Sgp90,drastically inhibited

# — patent EP0750511B1, “TREATING IN[…] THE ADMINISTRATION OF SPECIFIC SULFATASE ENZYMES AND/OR SULFATION INHIBITOR” (THE REGENTS OF THE UNIVERSITY OF CALIFORNIA, priority 1994, dated 1995)
